Calls of active or inactive are those of the source. No cut-off for these calls is given here.

For series [1], the system named is K562R. Conditions: Homo sapiens.
Description: Inhibition of P-gp in doxorubicin-resistant human K562R cells assessed as rhodamine efflux by measuring mean fluorescence intensity at 10 uM incubated for 1 hr by flow cytometry (Rvb = 0.47 No_unit)
Series [2] in a line: Cytotoxicity against doxorubicin-resistant human K562R cells incubated for 72 hrs by CellTiter 96 aqueous one solution reagent based assay. Conditions: k-562r. Type of series: functional, cell-based.
Series [3] in a line: Cytotoxicity against human K562 cells incubated for 72 hrs by CellTiter 96 aqueous one solution reagent based assay. Type of series: functional, cell-based.
A short description of series [4]: Resistance index, ratio of IC50 for cytotoxicity against doxorubicin-resistant human K562R cells to IC50 for cytotoxicity against human K562 cells. Type of series: functional.
Series [5] relates to K562R. In words: Inhibition of P-gp in doxorubicin-resistant human K562R cells assessed as rhodamine influx by measuring mean fluorescence intensity at 10 uM incubated for 20 mins by flow cytometry. In kind it is cell-based. In general terms: A flow cytometer gives signals particle by particle.
The test system of series [6] is K562R. In words: Inhibition of P-gp in doxorubicin-resistant human K562R cells assessed as rhodamine influx by measuring ratio of rhodamine mean fluorescence intensity in presence and absence of compound at 10 uM incubated for 20 mins by flow cytometry. Type of series: cell-based.
Series [7] has as its system K562R. The experiment in a line: Inhibition of P-gp in doxorubicin-resistant human K562R cells assessed as rhodamine influx by measuring ratio of rhodamine mean fluorescence intensity in presence and absence of compound at 5 uM incubated for 20 mins by flow cytometry. Type of series: cell-based.
Series [8] in a line: Cytotoxicity against human MRC5 cells incubated for 72 hrs by CellTiter 96 aqueous one solution reagent based assay. In kind it is toxicity, cell-based. Conditions: mrc5, 72 h.
In series [9] the test system is K562R. In words: Inhibition of P-gp-mediated multidrug resistance in doxorubicin-resistant human K562R cells assessed as potentiation of 5 nM vinorelbine-induced cytotoxicity by measuring cell viability at 1 uM incubated for 72 hrs by CellTiter 96 aqueous one solution reagent based assay.
For series [10], the system named is K562R. The experiment in a line: Inhibition of P-gp-mediated multidrug resistance in doxorubicin-resistant human K562R cells assessed as potentiation of 1 uM doxorubicin-induced cytotoxicity by measuring cell death level at 2 uM incubated for 72 hrs by CellTiter 96 aqueous one solution reagent based assay. Also on record: scale not given: the % may be the effect or the level left.

Series [11] can be described thus: Cytotoxicity against doxorubicin-resistant human K562R cells assessed as reduction in cell viability at 1 uM incubated for 72 hrs by CellTiter 96 aqueous one solution reagent based assay. Type of series: functional, K562.
The nature of series [12]: Cytotoxicity against doxorubicin-resistant human K562R cells assessed as reduction in cell viability at 2 uM incubated for 72 hrs by CellTiter 96 aqueous one solution reagent based assay. Type of series: functional, K562.
Series [13] is filed under the species Homo sapiens. In words: Stimulation of recombinant human P-gp ATPase activity at 10 uM by Pgp-Glo assay.
For a further series, the system named is K562. The experiment in a line: Potentiation of 0.1 to 1 nM vinorelbine-induced cytotoxicity by measuring reduction in cell viability against human K562 cells at 2 uM incubated for 72 hrs by CellTiter 96 aqueous one solution reagent based assay. Type of series: functional.
The subject of series [14] is K562R. In words: Inhibition of P-gp-mediated multidrug resistance in doxorubicin-resistant human K562R cells assessed as potentiation of 50 nM vinorelbine-induced cytotoxicity at 2 uM incubated for 72 hrs by CellTiter 96 aqueous one solution reagent based assay. In kind it is cell-based.
Series [15] is filed under the species Homo sapiens. The experiment in a line: Inhibition of recombinant human P-gp ATPase activity at 40 uM by Pgp-Glo assay.

With `C#Cc1ccc2[nH]c3c(c2c1)C/C(C(=O)OC)=C(/C(=O)NC(C)C)N1CC(CC)=C[C@@H](C1)C[C@]3(C(=O)OC)c1cc2c(cc1OC)N(C)[C@H]1[C@@](O)(C(=O)OC)[C@H](OC(C)=O)[C@]3(CC)C=CCN4CC[C@]21[C@@H]43`, the Flu intensity in the series with K562R [1] came to 0.51; in the series on K562R [5] it was 1.8. Further, the IC50 in series [2] turned out to be 2.5 µmol; in series [3] it was 0.6 µmol. In addition, the “Ratio IC50” value in [4] was 4. Further, the Ratio with K562R [6] came out at 1.
Take `CCC1=C[C@H]2CN(C1)C1=C(Cc3c([nH]c4ccccc34)[C@@](C(=O)OC)(c3cc4c(cc3OC)N(C)[C@H]3[C@@](O)(C(=O)OC)[C@H](OC(C)=O)[C@]5(CC)C=CCN6CC[C@]43[C@@H]65)C2)C(=O)N(Cc2ccccc2)C1=O`: the Flu intensity was determined as 1.89 in the series on K562R [1] and 11.3 in the series with K562R [5]. Further, the values for the IC50 in series [2] and in series [3] were 5 µmol and 0.9 µmol, respectively. For the same compound, the inhibition result in the series with K562R [7], in the series with K562R [14] and in the series filed under Homo sapiens [15] was “Active” each time. The Activity entry in series [8] was “Toxic”; in the series with K562R [9], 40%; in the series with K562R [10], 90%; in [11], 20%; in series [12], 20%; in the series on K562, 20%. For the same compound, the “Ratio IC50” value in series [4] was 5.5. Moreover, the result in the series filed under Homo sapiens [13] was Active. Also, the Ratio in the series with K562R [6] was 6.3.
For `CC[C@]1(O)C[C@@H]2CN(CCc3c([nH]c4ccccc34)[C@@](C(=O)OC)(c3cc4c(cc3OC)N(C)[C@H]3[C@@](O)(C(=O)OC)[C@H](OC(C)=O)[C@]5(CC)C=CCN6CC[C@]43[C@@H]65)C2)C1` [VINBLASTINE], the Flu intensity in the series with K562R [1] was found to be 0.42; in the series on K562R [5], 1.2. Further, the IC50 in [2] was determined as 0.48 µmol; in series [3], 0.004 µmol. In addition, the Activity entry in series [8] is listed as “Toxic”. Moreover, in [4], the “Ratio IC50” value stood at 120. In the series with K562R [6], the Ratio came to 0.7.
For the compound `CCC1=C[C@H]2CN(/C=C(/C(=O)OCc3ccccc3)Cc3c([nH]c4ccccc34)[C@@](C(=O)OC)(c3cc4c(cc3OC)N(C)[C@H]3[C@@](O)(C(=O)OC)[C@H](OC(C)=O)[C@]5(CC)C=CCN6CC[C@]43[C@@H]65)C2)C1`, the values for the Flu intensity in the series with K562R [1] and with K562R [5] were 0.48 and 2.3, respectively. The IC50 in series [2] was greater than 10 µmol; in series [3] it was 0.1 µmol. In addition, the “Ratio IC50” value in series [4] was greater than 100. In addition, the Ratio with K562R [6] is 1.3.
In the case of `CCC1=C[C@H]2CN(C1)C[C@H](C(=O)OCc1ccccc1)Cc1c([nH]c3ccccc13)[C@@](C(=O)OC)(c1cc3c(cc1OC)N(C)[C@H]1[C@@](O)(C(=O)OC)[C@H](OC(C)=O)[C@]4(CC)C=CCN5CC[C@]31[C@@H]54)C2`, the Flu intensity in the series with K562R [1] was found to be 0.48; in the series with K562R [5] it was 2.2. The IC50 in [2] was greater than 10 µmol; in series [3], 0.4 µmol. The “Ratio IC50” value in [4] is recorded as greater than 25. Besides, the Ratio in the series on K562R [6] was found to be 1.2.
On to `CCOC(=O)[C@@H]1Cc2c([nH]c3ccccc23)[C@@](C(=O)OC)(c2cc3c(cc2OC)N(C)[C@H]2[C@@](O)(C(=O)OC)[C@H](OC(C)=O)[C@]4(CC)C=CCN5CC[C@]32[C@@H]54)C[C@H]2C=C(CC)CN(C2)C1`, for which the Flu intensity worked out at 0.77 in the series on K562R [1] and 5.3 with K562R [5]. In addition, the figures for the IC50 in series [2] and in [3] were 3 µmol and 0.08 µmol, respectively. Besides, in series [4], the “Ratio IC50” value stood at 37. Besides, the Ratio with K562R [6] was 2.9.
Regarding `C#Cc1ccc2[nH]c3c(c2c1)C/C(C(=O)OC)=C\N1CC(CC)=C[C@@H](C1)C[C@]3(C(=O)OC)c1cc2c(cc1OC)N(C)[C@H]1[C@@](O)(C(=O)OC)[C@H](OC(C)=O)[C@]3(CC)C=CCN4CC[C@]21[C@@H]43`, the Flu intensity was 0.45 with K562R [1] and 1.6 in the series on K562R [5]. The IC50 came to 3 µmol in series [2] and 0.6 µmol in [3]. Further, the “Ratio IC50” value in series [4] stood at 5. In addition, the Ratio in the series on K562R [6] came to 0.9.
As to `CCC1=C[C@H]2CN(C1)C1=C(Cc3c([nH]c4ccccc34)[C@@](C(=O)OC)(c3cc4c(cc3OC)N(C)[C@H]3[C@@](O)(C(=O)OC)[C@H](OC(C)=O)[C@]5(CC)C=CCN6CC[C@]43[C@@H]65)C2)C(=O)N(CC(C)C)C1=O`, the Flu intensity with K562R [1] was 7.72; in the series with K562R [5] it was 36. For the same compound, the IC50 was determined as 2.5 µmol in [2] and 0.45 µmol in [3]. Moreover, the inhibition entry with K562R [7] was “Active”. The Activity result in series [8] is “Toxic”. Further, the “Ratio IC50” value in [4] came to 5.5. Besides, in the series on K562R [6], the Ratio was 20.
Turning to `COc1cccc2c1C(=O)c1c(O)c3c(c(O)c1C2=O)C[C@@](O)(C(=O)CO)C[C@@H]3O[C@H]1C[C@H](N)[C@H](O)[C@H](C)O1` [DOXORUBICIN], the IC50 in series [2] came out at 35 µmol; in series [3] it was 0.047 µmol. In addition, the “Ratio IC50” value in series [4] came out at 745.
For `CCOC(=O)/C1=C/N2CC(CC)=C[C@@H](C2)C[C@](C(=O)OC)(c2cc3c(cc2OC)N(C)[C@H]2[C@@](O)(C(=O)OC)[C@H](OC(C)=O)[C@]4(CC)C=CCN5CC[C@]32[C@@H]54)c2[nH]c3ccccc3c2C1`, the results for the Flu intensity in the series with K562R [1] and in the series with K562R [5] were 0.64 and 7.2, respectively. For the same compound, the IC50 in series [2] is greater than 10 µmol; in series [3], 0.1 µmol. In [4], the “Ratio IC50” value is given as greater than 100. Further, the Ratio with K562R [6] came to 4.
On to `CCC1=C[C@H]2CN(/C=C(/C(=O)OC)Cc3c([nH]c4ccc(Br)cc34)[C@@](C(=O)OC)(c3cc4c(cc3OC)N(C)[C@H]3[C@@](O)(C(=O)OC)[C@H](OC(C)=O)[C@]5(CC)C=CCN6CC[C@]43[C@@H]65)C2)C1`, for which the Flu intensity is 0.47 in the series on K562R [1] and 2.1 with K562R [5]. The IC50 in [2] is 3 µmol; in series [3] it was 0.5 µmol. For the same compound, the “Ratio IC50” value in series [4] came to 6. Further, the Ratio with K562R [6] amounted to 1.2.
As to `CCC1=C[C@H]2CN(C1)/C(C(=O)NCc1ccccc1)=C(/C(=O)OC)Cc1c([nH]c3ccccc13)[C@@](C(=O)OC)(c1cc3c(cc1OC)N(C)[C@H]1[C@@](O)(C(=O)OC)[C@H](OC(C)=O)[C@]4(CC)C=CCN5CC[C@]31[C@@H]54)C2`, the Flu intensity was determined as 0.55 in the series on K562R [1] and 2.2 in the series on K562R [5]. In addition, the IC50 in series [2] worked out at 6 µmol; in [3], 0.04 µmol. The “Ratio IC50” value in series [4] is given as 150. Moreover, the Ratio in the series on K562R [6] came to 1.2.
On to `CCC1=C[C@@H]2CN(C1)Cc1c([nH]c3ccccc13)[C@@](C(=O)OC)(c1cc3c(cc1OC)N(C)[C@H]1[C@@](O)(C(=O)OC)[C@H](OC(C)=O)[C@]4(CC)C=CCN5CC[C@]31[C@@H]54)C2` [VINORELBINE], for which the Flu intensity with K562R [1] came to 0.42; with K562R [5], 1.6. For the same compound, the results for the IC50 in series [2] and in [3] were 0.41 µmol and 0.003 µmol, respectively. The Activity entry in [8] was “Toxic”. Also, the “Ratio IC50” value in [4] was 137. The Ratio with K562R [6] was determined as 0.9.
Consider `CCC1=C[C@H]2CN(C1)C1=C(Cc3c([nH]c4ccccc34)[C@@](C(=O)OC)(c3cc4c(cc3OC)N(C)[C@H]3[C@@](O)(C(=O)OC)[C@H](OC(C)=O)[C@]5(CC)C=CCN6CC[C@]43[C@@H]65)C2)C(=O)N(C(C)C)C1=O`, for which the results for the Flu intensity in the series on K562R [1] and in the series on K562R [5] were 2.9 and 7.6, respectively. In addition, the IC50 in [2] was found to be 6 µmol; in series [3] it was 2.6 µmol. In the series on K562R [7], the inhibition entry was “Active”. Besides, the Activity entry in series [8] is given as “Toxic”. In series [4], the “Ratio IC50” value was found to be 2.3. For the same compound, the Ratio with K562R [6] worked out at 4.2.
Turning to `CCC1=C[C@H]2CN(C1)/C(C(=O)NC(C)C)=C(/C(=O)OC)Cc1c([nH]c3ccccc13)[C@@](C(=O)OC)(c1cc3c(cc1OC)N(C)[C@H]1[C@@](O)(C(=O)OC)[C@H](OC(C)=O)[C@]4(CC)C=CCN5CC[C@]31[C@@H]54)C2`, the Flu intensity stood at 1.39 in the series with K562R [1] and 2.9 with K562R [5]. Besides, the results for the IC50 in series [2] and in series [3] were 2 µmol and 0.04 µmol, respectively. Moreover, the “Ratio IC50” value in series [4] amounted to 50. The Ratio with K562R [6] was found to be 1.6.

Values taken from ChEMBL document CHEMBL3860099, “Original Vinca Derivatives: From P-Glycoprotein Substrates to P-Glycoprotein Inhibitors” (J Med Chem, 2016).
